According to patent US20190144375A1, “NOVEL CARBOCYCLIC COMPOUNDS AS ROR GAMMA MODULATORS” (Glenmark Pharmaceuticals S.A., priority 2015, published 2019):

Molecular target: T1, GST-tagged ROR gamma ligand binding domain (LBD) (Homo sapiens, UniProt P51449)
T1 construct: purchased Invitrogen
T1 sequence (P51449 269-508 limits assumed): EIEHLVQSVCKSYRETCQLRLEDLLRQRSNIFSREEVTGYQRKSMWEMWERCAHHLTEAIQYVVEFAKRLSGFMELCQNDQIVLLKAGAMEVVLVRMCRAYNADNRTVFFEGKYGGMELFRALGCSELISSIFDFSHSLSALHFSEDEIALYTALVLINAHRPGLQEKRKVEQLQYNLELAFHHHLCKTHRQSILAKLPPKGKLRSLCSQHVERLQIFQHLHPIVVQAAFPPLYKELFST
Assay: TR-FRET assay for ROR gamma (LanthaScreen, Fluorescein-D22 co-activator peptide recruitment)
Format: biochemical
Settings: for inhibition at 1 µM: 1 μM compound; for inhibition at 1 µM / inhibition at 10 µM: TR-FRET ratio 520/495; for inhibition at 10 µM: 10 μM compound; for IC50: dose response curve, class symbols
Text: The compounds described herein were screened for ROR gamma modulator activity using the TR-FRET assay (LanthaScreen™ available from Invitrogen of Carlsbad, Calif.) as described in JBC 2011, 286, 26: 22707-10; and Drug Metabolism and Disposition 2009, 37, 10: 2069-78.
The assay is based on the principle that binding of the agonist to the ROR gamma causes a conformational change around helix 12 in the ligand binding domain, resulting in higher affinity for the co-activator peptide. ROR gamma being constitutively active, the Fluorescein-D22 co-activator peptide used in the assay is recruited in the absence of a ligand. Binding of the co-activator peptide, causes an increase in the TR-FRET signal while binding of an antagonist decreases the recruitment of the co-activator peptide, causing a decrease in the TR-FRET signal compared to control with no compound. The assay was performed using a two-step procedure, pre-incubation step with the compound followed by the detection step on addition of the anti-GST tagged terbium (Tb) and fluorescein tagged fluorophores as the acceptor.
Test compounds or reference compounds such as T0901317 (Calbiochem) were dissolved in dimethylsulfoxide (DMSO) to prepare 10.0 mM stock solutions and diluted to the desired concentration. The final concentration of DMSO in the reaction was 4% (v/v). The assay mixture was prepared by mixing 10 nM of the GST-tagged ROR gamma ligand binding domain (LBD) in the assay buffer containing 25 mM HEPES, 100 mM NaCl, 5 mM DTT and 0.01% BSA with or without the desired concentration of the compound. The reaction was incubated at 22° C. for 1 hour. The pre-incubation step was terminated by addition of the detection mixture containing 300 nM Fluorescein-D22 co-activator peptide and 10 nM lantha screen Tb-anti GST antibody into the reaction mixture. After shaking for 5 minutes the reaction was further incubated for 1 hour at room temperature and read […] on an Infinite F500 reader as per the kit instructions (Invitrogen). The inhibition of test compound was calculated based on the TR-FRET ratio of 520/495. The activity was calculated as a percent of control reaction. IC50 values were calculated from dose response curve by nonlinear regression analysis using GraphPad Prism software.
Percentage inhibition at concentrations of 1.0 μM and 10.0 μM are given in the table along with IC50 (nM) details for selected examples.

SMILES	inhibition at 1 µM [%]	inhibition at 10 µM [%]	IC50 [nM]
CCC(F)(F)c1ccc(CC(=O)Nc2ccc(C(=O)N(C)c3cc(C)cc(-c4ccccc4F)c3)cc2)cc1 [Example 13]	87.5	90.6	50 to 100
CCC(F)(F)c1ccc(CC(=O)Nc2ccc(C(=O)N(C)c3cc(C)cc(C)c3)cc2)cc1 [Example 11]	90.1	92.9	< 50
Cc1cc(C)c(N(C)C(=O)c2ccc(NC(=O)Cc3ccc(C(F)(F)C(C)O)cc3)cc2)c(C)c1 (stereo not drawn) [Example 32]	84.9	95	50 to 100
CC(O)C(F)(F)c1ccc(CC(=O)Nc2ccc(C(=O)N(C)c3ccc(C4CC4)cc3Cl)cc2)cc1 (stereo not drawn) [Example 38]	92.6	94.8	< 50
CC(O)C(F)(F)c1ccc(CC(=O)Nc2ccc(C(=O)N(C)c3cc(C4CC4)ccc3Cl)cc2)cc1 (stereo not drawn) [Example 40]	90.8	94.3	< 50
Cc1cc(C)cc(N(C)C(=O)c2ccc(NC(=O)Cc3ccc(C(F)(F)CO)cc3)cc2)c1 [Example 7]	87.5	95.1	< 50
Cc1ccc(C2CC2)cc1N(C)C(=O)c1ccc(NC(=O)Cc2ccc(C(F)(F)C(C)O)cc2)cc1 (stereo not drawn) [Example 39]	84.1	92	< 50
Cc1ccc(N(C)C(=O)c2ccc(NC(=O)Cc3ccc(C(F)(F)[C@H](C)O)cc3)cc2)c(Cl)c1 [Example 30, (S)—N-(2-Chloro-4-methylphenyl)-4-(2-(4-(1,1-difluoro-2-hydroxypropyl)phenyl)acetamido)-N-methylbenzamide]	85.5	88.7	< 50
Cc1cc(C)c(N(C)C(=O)c2ccc(NC(=O)Cc3ccc(C(F)(F)C(C)O)cc3)cc2)c(Cl)c1 (stereo not drawn) [Example 33]	86.8	90.2	< 50
CCC(F)(F)c1ccc(CC(=O)Nc2ccc(C(=O)N(C)[C@H](C)c3ccc(Cl)cc3)cc2)cc1 [Example 17]	87.1	90.8	< 50
Cc1cc(C)cc(N(C)C(=O)c2ccc(NC(=O)Cc3ccc(C(F)(F)[C@@H](C)O)cc3)cc2)c1 [Example 36]	89.7	94.5	< 50
CCC(F)(F)c1ccc(CC(=O)Nc2ccc(C(=O)N(CC(F)(F)F)c3cccc(Cl)c3)cc2)cc1 [Example 14]	84	87.6	< 50
Cc1ccc(N(C)C(=O)c2ccc(NC(=O)Cc3ccc(C(F)(F)C(C)O)cc3)cc2)c(Cl)c1 (stereo not drawn) [Example 23]	88.8	93.2	< 50
Cc1cc(C)cc(N(C)C(=O)c2ccc(NC(=O)Cc3ccc(C(F)(F)C(C)O)cc3)cc2)c1 (stereo not drawn) [Example 8]	94.8	96.5	< 50
CC(O)C(F)(F)c1ccc(CC(=O)Nc2ccc(C(=O)N(C)[C@@H](c3ccc(Cl)cc3)C3CC3)cc2)cc1 (stereo partly drawn) [Example 19]	82.6	92.8	50 to 100
CCC(F)(F)c1ccc(CC(=O)Nc2ccc(C(=O)N(C)c3ccccc3Cl)cc2)cc1 [Example 6]	90.9	91.2	< 50
CCOC(=O)C(F)(F)c1ccc(CC(=O)Nc2ccc(C(=O)N(C)c3ccc(Cl)cc3)cc2)cc1 [Example 1, Ethyl 2-(4-(2-((4-((4-chlorophenyl)(methyl)carbamoyl)phenyl)amino)-2-oxoethyl)phenyl)-2,2-difluoroacetate]	27.6	64.5	–
COCC(F)(F)c1ccc(CC(=O)Nc2ccc(C(=O)N(C)[C@H](C)c3ccc(Cl)cc3)cc2)cc1 [Example 16]	84.5	93.7	> 100

SMILES	inhibition at 1 µM [%]	inhibition at 10 µM [%]	IC50 [nM]
Cc1ccc(F)c(N(C)C(=O)c2ccc(NC(=O)Cc3ccc(C(F)(F)C(C)O)cc3)cc2)c1 (stereo not drawn) [Example 28]	90.5	93.9	< 50
CC(O)C(F)(F)c1ccc(CC(=O)Nc2ccc(C(=O)N(C)c3ccc(Cl)cc3Cl)cc2)cc1 (stereo not drawn) [Example 25]	82	90	< 50
CC(O)C(F)(F)c1ccc(CC(=O)Nc2ccc(C(=O)N(C)c3ccccc3Cl)cc2)cc1 (stereo not drawn) [Example 15]	85.5	92.8	< 50
Cc1cc(Cl)ccc1N(C)C(=O)c1ccc(NC(=O)Cc2ccc(C(F)(F)C(C)O)cc2)cc1 (stereo not drawn) [Example 24]	82.6	88.7	< 50
Cc1cc(C)cc(N(C)C(=O)c2ccc(NC(=O)Cc3ccc(C(F)(F)C(C)(C)O)cc3)cc2)c1 [Example 9, 4-(2-(4-(1,1-difluoro-2-hydroxy-2-methylpropyl)phenyl)acetamido)-N-(3,5-dimethylphenyl)-N-methylbenzamide]	86.2	97	> 100
CCC(F)(F)c1ccc(CC(=O)Nc2ccc(C(=O)N(C)[C@@H](C)c3ccc(Cl)cc3)cc2)cc1 [Example 20]	61.5	75	–
Cc1cc(-c2ccccc2F)cc(N(C)C(=O)c2ccc(NC(=O)Cc3ccc(C(F)(F)C(C)O)cc3)cc2)c1 (stereo not drawn) [Example 12]	89.4	93.7	50 to 100
Cc1ccc(N(C)C(=O)c2ccc(NC(=O)Cc3ccc(C(F)(F)[C@@H](C)O)cc3)cc2)c(Cl)c1 [Example 29, (R)—N-(2-Chloro-4-methylphenyl)-4-(2-(4-(1,1-difluoro-2-hydroxypropyl)phenyl)acetamido)-N-methylbenzamide]	80.7	87.1	< 50
CC(O)C(F)(F)c1ccc(CC(=O)Nc2ccc(C(=O)N(C)c3cc(Cl)ccc3Cl)cc2)cc1 (stereo not drawn) [Example 5, N-(2,5-Dichlorophenyl)-4-(2-(4-(1,1-difluoro-2-hydroxypropyl)phenyl)acetamido)-N-methylbenzamide]	87.6	94.3	< 50
CCC(F)(F)c1ccc(CC(=O)Nc2ccc(C(=O)N(C)c3cc(Cl)ccc3Cl)cc2)cc1 [Example 4]	88.5	91.1	< 50
Cc1ccc(Cl)c(N(C)C(=O)c2ccc(NC(=O)Cc3ccc(C(F)(F)C(C)O)cc3)cc2)c1 (stereo not drawn) [Example 27]	90.1	92	< 50
CC(O)C(F)(F)c1ccc(CC(=O)Nc2ccc(C(=O)N(C)c3cccc(Cl)c3F)cc2)cc1 (stereo not drawn) [Example 26]	86.4	93.2	< 50
COCC(F)(F)c1ccc(CC(=O)Nc2ccc(C(=O)N(C)c3cc(C)cc(C)c3)cc2)cc1 [Example 10]	93.2	95.3	< 50
Cc1ccc(N(C)C(=O)c2ccc(NC(=O)Cc3ccc(C(F)(F)C(C)O)cc3)cc2)c(C2CC2)c1 (stereo not drawn) [Example 34]	91.8	92.6	< 50
CN(C(=O)c1ccc(NC(=O)Cc2ccc(C(F)(F)C(N)=O)cc2)cc1)c1ccc(Cl)cc1 [Example 2, 4-(2-(4-(2-amino-1,1-difluoro-2-oxoethyl)phenyl)acetamido)-N-(4-chlorophenyl)-N-methylbenzamide]	20.7	43.4	–
CC(O)C(F)(F)c1ccc(CC(=O)Nc2ccc(C(=O)N(C)c3cc(Cl)cc(Cl)c3)cc2)cc1 (stereo not drawn) [Example 21, N-(3,5-dichlorophenyl)-4-(2-(4-(1,1-difluoro-2-hydroxypropyl)phenyl)acetamido)-N-methylbenzamide]	82.2	87.9	< 50
CCC(F)(F)c1ccc(CC(=O)Nc2ccc(C(=O)N(C)[C@@H](c3ccc(Cl)cc3)C3CC3)cc2)cc1 [Example 18]	87.4	90	< 50
